Here are results for four compounds from the NIST ThermoML archive (doi:10.1016/j.fluid.2014.05.006).

The nature of series [1]: relative permittivity at zero frequency (dimensionless). As to conditions: 298 K; 94.77 kPa; Liquid; Parallel plate capacitor.
Series [2] is described as follows: relative permittivity at zero frequency (dimensionless); xn = mol fraction of the nth substance listed. The conditions noted are these: 298 K, 94.77 kPa, Liquid, Parallel plate capacitor.

Numbers after ± are expanded uncertainties.

For `Cn1ccnc1` [1-methylimidazole], the “relative permittivity at zero frequency” value in series [1] came to 39.78 ± 4.2.

Consider `Cn1ccnc1` [1-methylimidazole] + O, for which the “relative permittivity at zero frequency” value was 39.78 ± 4.2 in series [2] (x2 = 0); 40.98 ± 4.3 in series [2] (x2 = 0.1); 42.55 ± 4.5 in series [2] (x2 = 0.2); 45.87 ± 4.9 in series [2] (x2 = 0.3); 46.02 ± 4.9 in series [2] (x2 = 0.4); 48.53 ± 5.2 in series [2] (x2 = 0.5). Besides, the “relative permittivity at zero frequency” value in series [2] (x2 = 0.6) worked out at 50.04 ± 5.3; in series [2] (x2 = 0.7) it was 50.99 ± 5.4; in series [2] (x2 = 0.8), 52 ± 5.5; in series [2] (x2 = 0.9) it was 53.01 ± 7.5.

As to `O` [water], the “relative permittivity at zero frequency” value in series [1] is 80 ± 8.5.

With `O` [water] + Cn1ccnc1, the “relative permittivity at zero frequency” value in series [2] (x1 = 1) came out at 80 ± 8.5.
